Data set [1] is described as follows: Plasma and brain concentration 30 min after IP injection. The class given is in vivo, mouse. The conditions noted are these: male, C57BL6/J, mouse, mice, ip dosing, 30 minutes; for Kp at 30 min: brain/plasma, read-out: B/P. Here is the method:
All studies were performed on 6-week old male C57BL6/J mice that were housed in the Columbia University Medical Center facility in a 12h light/dark cycle with access to food and water ad libitum. All animal procedures were approved by the Columbia University IACUC. […] Animals were weighed and injected once intraperitoneally (IP) at the indicated dose (10 or 20 mg/kg). After 30 min, animals were deeply anesthetized with 2.5% Avertin. Whole blood was collected by cardiac puncture in tubes containing 0.5M EDTA as an anticoagulant, and centrifuged for 10 min at 845 rcf at 4° to isolate plasma. Following cardiac puncture, animals were decapitated and brains were dissected and weighed. Brain samples were homogenized with a glass dounce homogenizer in 5 volumes of ddH2O. Brain and plasma samples were snap frozen in liquid nitrogen and stored at −80° C. before further processing.
The plasma samples were transferred to Eppendorf tubes (50 μL per sample) and diluted with acetonitrile (200 μL). The samples were sonicated for 1 minute followed by centrifugation at 16,000 rpm for 10 minutes. The supernatant was transferred to another Eppendorf tube and the solvent evaporated overnight. The samples were reconstituted in a mixture of 40 μL acetonitrile and 10 μL water transferred to a sample vial with insert, and analyzed by LC-MS.
The homogenized brain samples (250 μL) were transferred to Eppendorf tubes and diluted with acetonitrile (750 μL). The samples were sonicated for 1 minute followed by centrifugation at 16,000 rpm for 10 minutes. The supernatant (900 μL) was transferred to another Eppendorf tube and the solvent evaporated overnight. The samples were reconstituted in a mixture of 80 μL acetonitrile and 20 μL water, transferred to a sample vial with insert, and analyzed by LC-MS.
LC-MS analysis was performed on a platform comprising a Thermo Scientific Dionex Ultimate 3000 and a Bruker amaZon SL equipped with an electrospray ionization source controlled by Bruker Hystar 3.2. The compound concentration in each plasma sample was determined using a calibration curve. Chromatographic separation was performed by injecting 10 μL of the sample onto an Agilent Eclipse Plus C18 column (2.1×50 mm, 3.5 μm) maintained at 20° C. The flow rate was maintained at 400 μL/min. The initial flow conditions were 60% solvent A (water containing 0.1% acetic acid) and 40% solvent B (methanol containing 0.1% acetic acid). Solvent B was raised to 60% over 0.25 minutes and to 70% by 6.75 minutes.

The test system of data set [2] is human ES motor neurons carrying the ALS-causing SOD1^A4V mutation. The data set can be described thus: cells. Particulars: Homo sapiens, Neuron, 72 h, CPA 33 μM, 72 h. The class given is cell-based. Here is the method: Next, survival assays were performed with all the analogs at once to generate a low-variability dataset. All compounds were evaluated at concentrations ranging from 0.1-3.0 μM (five-point dilution) in three technical replicates and two biological replicates.

In the next data set the test system is phospho-cjun. The data set can be described thus: Phospho-cjun in olfactory bulbs after treatment in vivo (western blot). Details: species or system mouse. Particulars: 10 mg/kg oral gavage. Here is the method:
Compounds at 10 mg/kg were delivered intraperitoneally (IP), orally, or sub-cutaneously (SC). Animals were sacrificed 1 h after treatment. Their olfactory bulbs were dissected and lysed for western blot analysis. Phospho-cjun expression was normalized to the housekeeping protein GAPDH.
We therefore selected phospho-cjun as a marker of target engagement for further in vivo studies. C-jun is highly expressed throughout the murine central nervous system, especially in the olfactory bulbs. […] Animals were then sacrificed after 1 h, and their olfactory bulbs were sub-dissected and lysed for further western blot analysis. Samples were probed with an antibody specific to phosphorylated c-jun (at serine 63; cell signaling) and normalized to the housekeeping gene GAPDH.
A general note: In western blotting, separated proteins are transferred to a membrane and probed.

A further data set concerns the target NUAK1 (Homo sapiens, UniProt O60285). The conditions noted are these: cited from earlier work.
The subject of the next data set is human ES motor neurons. The data set can be described thus: Rescue of CPA toxicity by kinase inhibitors in dilution series (FIG. 3). Particulars: dilution series, FIG. 3.
Data set [3] relates to human stem cell-derived motor neurons derived from a healthy patient.
For data set [4] the test system is unchanged. As to the kind of experiment: CPA survival assay, wild-type human stem cell-derived motor neurons. The conditions noted are these: 8-point dilution series.
Data set [5] concerns HB9::GFP-SOD1^+/A4V human motor neurons. As to the kind of experiment: Rescue of CPA toxicity in human ESC-derived motor neurons, SOD1^+/A4V. The class given is cell-based. Particulars: SOD1^A4V motor neurons, 33 μM CPA. The source says:
(§1) One advantage of the stem cell-derived motor neuron survival assay is that it can be easily extended to human motor neurons. To adapt the assay to human cells, we generated a new isogenic pair of ESC lines derived from a human ESC line expressing GFP under the control of the Hb9 motor neuron promoter (HUES3 HB9::GFP, (Di Giorgio et al. 2008)). […] . The pair of cell lines was differentiated into motor neurons in parallel using previously published protocols (Amoroso et al. 2013; […] .
(§2) Differentiation of human isogenic HUES3 ESC HB9::GFP reporter lines into motor neurons was performed as previously described (Maury et al. 2015). Cells were dissociated on day 16 of differentiation, FACS-sorted and plated on poly-ornithine- and laminin-coated surfaces as above. Serum-free human motor neuron plating media was supplemented with the antimitotic UFdU and the neurotrophic factors GDNF, BDNF, CNTF, and IGF1 (all at 10 ng/mL) as described (Johnson-Kerner et al. 2015).

Data set [6] concerns HB9::GFP-SOD1^+/+ human motor neurons. The data set can be described thus: Rescue of CPA toxicity in human ESC-derived motor neurons, SOD1^+/+. The data set is classed as cell-based. Particulars: WT motor neurons, 33 μM CPA.
From the text: as §1, §2

The next data set concerns the target MLK3 (Homo sapiens, UniProt Q16584). Particulars: 0.5 μM; Anastassiadis et al. 2011; cited from earlier work.
Data set [7] in a line: Solubility of kenpaullone (observation). The class given is physicochemical.
The subject of the next data set is hSOD1^G93A mice. As to the kind of experiment: TUDCA on neuromuscular junction denervation of tibialis anterior. The data set is classed as in vivo, mouse. Particulars: 0.5 mg/g subcutaneously every three days, P30 to P50. From the text:
To test the ability of TUDCA to preserve motor axons in ALS models in vivo, we designed a small-scale study in which we evaluated the denervation of the fast fatigable hind limb muscle tibialis anterior (TA) (FIG. 20D). […]. During this period, the TA muscles display 25-40% denervation before becoming substantially atrophied at later time points. […]. At the end of the experiment, we counted total NMJs by staining for acetylcholine receptors on the TA muscle with Alexa Fluor 488-conjugated α-bungarotoxin, and assessed their innervation by staining for motor axons with antibodies against vesicular acetylcholine […] (VAChT) (FIG. 20F). […].
(2) hSOD1^WT mice receiving 0.5 mg/g TUDCA in 0.01 M PBS subcutaneously to evaluate the mutation-specific effects of NMJ denervation and of the drug; […]. […] Because a lack of co-localization indicated muscle denervation, % NMJ innervation was determined by dividing the total number of areas of overlap between VAChT and BTX signals (total number innervated endplates) by the number of areas containing BTX signal (total number of endplates). One TA was assessed for each animal (n=4-6), with every third section throughout the whole muscle stained and counted such that a minimum of 1000 NMJs were evaluated per animal. Images were acquired using a Nikon Eclipse TE-2000-E fluorescence microscope with a 4× or 10× objective. […]

Values joined by “and” are separate entries in the source; they are usually repeats but may differ in a detail not shown here. Equal values may be shown once. Read-outs that look alike come from different tables or passages of the source.

NUAK1, sequence (O60285 whole entry, species assumed): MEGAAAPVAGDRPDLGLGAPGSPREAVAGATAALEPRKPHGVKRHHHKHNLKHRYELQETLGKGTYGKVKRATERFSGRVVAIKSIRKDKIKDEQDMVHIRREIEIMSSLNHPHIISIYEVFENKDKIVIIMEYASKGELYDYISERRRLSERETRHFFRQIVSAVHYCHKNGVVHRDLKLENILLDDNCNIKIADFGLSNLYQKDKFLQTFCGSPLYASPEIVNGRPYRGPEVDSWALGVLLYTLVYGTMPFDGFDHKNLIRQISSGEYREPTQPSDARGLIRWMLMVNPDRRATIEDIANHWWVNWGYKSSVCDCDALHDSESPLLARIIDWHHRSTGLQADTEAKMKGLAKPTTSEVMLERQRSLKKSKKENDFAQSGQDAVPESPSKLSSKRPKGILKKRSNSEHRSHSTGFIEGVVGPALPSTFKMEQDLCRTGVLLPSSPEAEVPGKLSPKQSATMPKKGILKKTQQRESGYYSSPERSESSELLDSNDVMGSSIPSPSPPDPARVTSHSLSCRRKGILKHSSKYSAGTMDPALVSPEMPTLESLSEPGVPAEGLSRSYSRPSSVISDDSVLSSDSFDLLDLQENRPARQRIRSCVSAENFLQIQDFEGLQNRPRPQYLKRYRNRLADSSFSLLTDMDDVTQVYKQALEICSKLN
MLK3, sequence (Q16584 whole entry, species assumed): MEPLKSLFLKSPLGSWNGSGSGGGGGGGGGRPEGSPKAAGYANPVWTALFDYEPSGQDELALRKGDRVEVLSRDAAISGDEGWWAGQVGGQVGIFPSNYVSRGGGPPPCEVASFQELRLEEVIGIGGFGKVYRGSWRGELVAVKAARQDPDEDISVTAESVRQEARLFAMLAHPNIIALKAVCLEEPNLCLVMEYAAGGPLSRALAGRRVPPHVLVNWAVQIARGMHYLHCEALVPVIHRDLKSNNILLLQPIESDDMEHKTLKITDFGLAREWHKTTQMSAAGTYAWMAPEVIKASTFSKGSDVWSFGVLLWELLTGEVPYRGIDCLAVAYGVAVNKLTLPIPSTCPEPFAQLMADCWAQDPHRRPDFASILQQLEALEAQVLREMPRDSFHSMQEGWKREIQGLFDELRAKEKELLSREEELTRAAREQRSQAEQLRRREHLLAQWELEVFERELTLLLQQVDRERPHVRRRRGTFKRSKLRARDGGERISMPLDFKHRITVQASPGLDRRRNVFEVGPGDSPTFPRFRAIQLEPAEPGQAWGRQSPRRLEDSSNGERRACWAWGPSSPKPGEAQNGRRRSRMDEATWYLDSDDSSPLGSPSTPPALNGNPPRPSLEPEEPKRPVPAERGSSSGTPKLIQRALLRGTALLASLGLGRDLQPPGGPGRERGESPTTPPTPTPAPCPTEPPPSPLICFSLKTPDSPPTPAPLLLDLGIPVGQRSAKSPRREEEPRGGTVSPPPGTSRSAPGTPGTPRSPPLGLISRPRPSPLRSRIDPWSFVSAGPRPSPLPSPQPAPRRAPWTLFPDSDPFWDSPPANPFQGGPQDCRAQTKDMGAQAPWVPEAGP

For orientation: EC50 means the concentration that produces a half-maximal response. In the case of `OCCN1CCN(Cc2ccc(-c3cnc4[nH]cc(-c5cccc(F)c5)c4c3)cc2)CC1` [Compound 12h, 2-(4-(4-(3-(3-Fluorophenyl)-1H-pyrrolo[2,3-b]pyridin-5-yl)benzyl)piperazin-1-yl)ethan-1-ol], the Kp at 30 min in data set [1] (10 mg/kg) came out at 2; in data set [1] (20 mg/kg), 3.3. The concentration at 30 min was < 500 ng/g and < 1.2 µM in data set [1] (10 mg/kg, read-out: brain); < 250 ng/mL and < 580 nM in [1] (10 mg/kg, read-out: plasma); 1670 ng/g and 3.88 µM in data set [1] (20 mg/kg, read-out: brain); 505 ng/mL and 1.17 µM in [1] (20 mg/kg, read-out: plasma). Also, in data set [2] (read-out: EC50), the EC50 was 100 nM. Further, the Emax in data set [2] (read-out: Emax (MN survival % untreated)) amounted to 117%. In the data set on phospho-cjun, the “oral bioavailability (from reduction of cjun phosphorylation after oral gavage)” value is on record as “orally bioavailable”.
As a reminder, the IC50 is the concentration that gives 50% inhibition. For `Cc1nc(Nc2cnn(C3CCNCC3)c2)nc2c1N(C)C(=O)c1cc3ccccc3cc1N2C` [HTH 01-015], the 50% inhibitory concentration (IC50) on NUAK1 is 100 nM. In addition, the “rescue of CPA toxicity” value with human ES motor neurons is “failed to rescue CPA toxicity”; in data set [4], “unable to rescue CPA toxicity”. The “concentration above which toxic to motor neurons in the absence of CPA” value in data set [3] is “above 2 μM”.
Consider `O=C1Cc2c([nH]c3ccc(Br)cc23)-c2ccccc2N1` [Kenpaullone], for which the “rescue of CPA-induced cell death” value is 31% in data set [5] and 42% in data set [6]. In addition, on MLK3, the MLK3 activity remaining was 49.3%. The “solubility at the concentrations effective in in vitro CPA assays” value in data set [7] is “insoluble”.
In the case of `C[C@H](CCC(=O)NCCS(=O)(=O)O)[C@H]1CC[C@H]2[C@@H]3[C@@H](O)C[C@@H]4C[C@H](O)CC[C@]4(C)[C@H]3CC[C@]12C` [TUDCA, tauroursodeoxycholic acid], the “NMJ innervation vs untreated animals” value in the data set on hSOD1^G93A mice is given as “moderate, but statistically significant increase in NMJ innervation”. Also, the “rescue of CPA-induced cell death” value in data set [5] is 9%; in data set [6] it was 34%.

Source of the values: patent publication US12227500B2, “Substituted pyrrolo[2,3-b]pyridines for suppressing toxic endoplasmic reticulum stress” (THE TRUSTEES OF COLUMBIA UNIVERSITY IN THE CITY OF NEW YORK, priority 2018, dated 2025).
